Key:
[1] = target: T1, Thromboxane A2 receptor (Homo sapiens, UniProt P21731); assay type: functional
T1 sequence (P21731 whole entry): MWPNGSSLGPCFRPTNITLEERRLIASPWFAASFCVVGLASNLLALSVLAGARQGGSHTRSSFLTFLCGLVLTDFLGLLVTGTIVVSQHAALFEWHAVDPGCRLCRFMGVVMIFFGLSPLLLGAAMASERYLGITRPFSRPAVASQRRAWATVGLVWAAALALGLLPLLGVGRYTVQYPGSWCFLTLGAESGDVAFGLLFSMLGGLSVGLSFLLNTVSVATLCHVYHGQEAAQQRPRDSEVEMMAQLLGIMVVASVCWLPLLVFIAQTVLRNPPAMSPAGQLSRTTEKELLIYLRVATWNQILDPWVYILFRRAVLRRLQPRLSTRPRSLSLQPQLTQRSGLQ

[2] = target: Acetylcholinesterase (Homo sapiens, UniProt P22303); assay type: functional
[3] = target: T2, D(1A) dopamine receptor (Homo sapiens, UniProt P21728); assay type: functional, cell-based
[4] = target: Substance-P receptor (Homo sapiens, UniProt P25103)
[5] = target: T2, D(1A) dopamine receptor
[6] = target: T3, 5-hydroxytryptamine receptor 1A (Homo sapiens, UniProt P08908)
T3 sequence (P08908 whole entry): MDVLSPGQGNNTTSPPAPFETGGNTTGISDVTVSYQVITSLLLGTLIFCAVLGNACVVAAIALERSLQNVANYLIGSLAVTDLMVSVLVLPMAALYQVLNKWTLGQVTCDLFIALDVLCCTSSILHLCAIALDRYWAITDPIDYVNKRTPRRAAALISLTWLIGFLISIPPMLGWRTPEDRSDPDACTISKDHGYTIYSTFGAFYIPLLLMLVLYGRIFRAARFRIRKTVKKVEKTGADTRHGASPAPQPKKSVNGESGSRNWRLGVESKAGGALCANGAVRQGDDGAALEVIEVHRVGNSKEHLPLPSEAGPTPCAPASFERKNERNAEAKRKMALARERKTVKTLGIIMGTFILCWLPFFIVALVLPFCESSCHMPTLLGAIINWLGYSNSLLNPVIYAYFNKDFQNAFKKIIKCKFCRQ

[7] = target: T4, Gastric inhibitory polypeptide receptor (Homo sapiens, UniProt P48546)
T4 sequence (P48546 whole entry): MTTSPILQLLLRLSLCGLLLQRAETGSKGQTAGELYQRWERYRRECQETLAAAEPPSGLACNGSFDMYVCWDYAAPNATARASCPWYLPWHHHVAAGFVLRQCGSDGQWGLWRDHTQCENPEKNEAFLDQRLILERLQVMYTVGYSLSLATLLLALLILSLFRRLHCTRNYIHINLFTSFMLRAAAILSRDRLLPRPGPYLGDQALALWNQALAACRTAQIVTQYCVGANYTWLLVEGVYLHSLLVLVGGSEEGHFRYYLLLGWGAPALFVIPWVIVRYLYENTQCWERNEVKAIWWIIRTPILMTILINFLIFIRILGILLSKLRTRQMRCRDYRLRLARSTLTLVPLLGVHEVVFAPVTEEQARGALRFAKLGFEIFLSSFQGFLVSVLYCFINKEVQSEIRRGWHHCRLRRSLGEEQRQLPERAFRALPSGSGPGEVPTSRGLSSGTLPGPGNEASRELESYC

[8] = target: T5, Alpha-2A adrenergic receptor (Homo sapiens, UniProt P08913)
T5 sequence (P08913 whole entry): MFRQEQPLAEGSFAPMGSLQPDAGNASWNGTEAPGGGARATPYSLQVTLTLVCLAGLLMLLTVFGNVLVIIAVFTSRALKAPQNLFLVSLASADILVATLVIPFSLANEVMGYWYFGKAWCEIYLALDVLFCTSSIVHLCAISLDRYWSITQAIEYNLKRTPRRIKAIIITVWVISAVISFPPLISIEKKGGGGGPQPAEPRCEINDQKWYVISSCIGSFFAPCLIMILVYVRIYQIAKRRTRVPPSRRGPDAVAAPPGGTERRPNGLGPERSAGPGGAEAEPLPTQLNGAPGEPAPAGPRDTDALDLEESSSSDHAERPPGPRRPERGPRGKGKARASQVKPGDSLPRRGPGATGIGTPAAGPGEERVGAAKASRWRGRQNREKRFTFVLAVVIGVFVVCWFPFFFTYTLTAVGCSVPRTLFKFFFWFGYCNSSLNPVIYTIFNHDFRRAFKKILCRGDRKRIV

[9] = target: Histamine H2 receptor (Homo sapiens, UniProt P25021)
[10] = target: T6, Androgen receptor (Rattus norvegicus, UniProt P15207); assay type: functional
T6 sequence (P15207 whole entry): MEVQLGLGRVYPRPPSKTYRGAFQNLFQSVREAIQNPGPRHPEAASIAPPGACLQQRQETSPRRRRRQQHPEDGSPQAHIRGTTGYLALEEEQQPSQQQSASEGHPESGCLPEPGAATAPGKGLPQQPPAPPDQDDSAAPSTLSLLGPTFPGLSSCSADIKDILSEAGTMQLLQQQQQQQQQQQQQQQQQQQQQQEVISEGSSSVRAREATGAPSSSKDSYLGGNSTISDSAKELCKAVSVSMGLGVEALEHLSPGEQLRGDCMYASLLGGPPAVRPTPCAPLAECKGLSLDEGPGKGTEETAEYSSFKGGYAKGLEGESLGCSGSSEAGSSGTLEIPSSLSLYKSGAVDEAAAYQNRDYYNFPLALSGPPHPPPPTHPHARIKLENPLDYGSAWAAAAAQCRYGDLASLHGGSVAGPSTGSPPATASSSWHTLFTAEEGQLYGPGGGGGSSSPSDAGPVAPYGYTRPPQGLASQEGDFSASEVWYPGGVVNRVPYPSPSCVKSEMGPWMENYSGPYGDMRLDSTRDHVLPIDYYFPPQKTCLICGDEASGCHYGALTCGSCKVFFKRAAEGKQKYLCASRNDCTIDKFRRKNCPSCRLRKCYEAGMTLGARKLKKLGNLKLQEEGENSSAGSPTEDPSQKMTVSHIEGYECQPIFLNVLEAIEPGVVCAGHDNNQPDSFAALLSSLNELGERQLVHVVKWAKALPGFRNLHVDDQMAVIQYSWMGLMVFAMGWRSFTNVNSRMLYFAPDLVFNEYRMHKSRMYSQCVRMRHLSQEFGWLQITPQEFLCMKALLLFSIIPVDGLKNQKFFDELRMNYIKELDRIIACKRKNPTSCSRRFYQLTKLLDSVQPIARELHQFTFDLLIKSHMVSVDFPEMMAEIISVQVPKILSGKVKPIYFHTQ
Further: assay procedure not described here.

Sequence of Histamine H2 receptor (P25021 whole entry): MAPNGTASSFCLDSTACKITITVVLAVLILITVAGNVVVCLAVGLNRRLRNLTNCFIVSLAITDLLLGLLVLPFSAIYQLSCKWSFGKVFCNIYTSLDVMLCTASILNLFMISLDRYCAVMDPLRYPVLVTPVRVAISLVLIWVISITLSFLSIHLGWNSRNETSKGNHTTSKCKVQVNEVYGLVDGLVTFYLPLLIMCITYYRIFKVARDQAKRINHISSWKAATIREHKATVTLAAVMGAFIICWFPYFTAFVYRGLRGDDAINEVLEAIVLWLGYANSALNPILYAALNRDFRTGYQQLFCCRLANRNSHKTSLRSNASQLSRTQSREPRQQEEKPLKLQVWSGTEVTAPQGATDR
Sequence of Substance-P receptor (P25103 whole entry): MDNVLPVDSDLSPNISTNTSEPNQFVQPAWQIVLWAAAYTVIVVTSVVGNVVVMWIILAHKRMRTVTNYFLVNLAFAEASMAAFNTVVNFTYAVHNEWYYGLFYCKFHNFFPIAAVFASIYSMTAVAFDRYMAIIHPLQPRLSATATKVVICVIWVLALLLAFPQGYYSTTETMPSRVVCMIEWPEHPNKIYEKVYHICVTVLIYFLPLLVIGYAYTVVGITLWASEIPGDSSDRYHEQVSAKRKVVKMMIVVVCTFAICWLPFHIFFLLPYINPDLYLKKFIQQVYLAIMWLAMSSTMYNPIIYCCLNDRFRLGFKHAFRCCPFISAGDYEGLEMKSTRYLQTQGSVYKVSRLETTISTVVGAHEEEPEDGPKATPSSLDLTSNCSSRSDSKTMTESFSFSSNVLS
T2 sequence (P21728 whole entry): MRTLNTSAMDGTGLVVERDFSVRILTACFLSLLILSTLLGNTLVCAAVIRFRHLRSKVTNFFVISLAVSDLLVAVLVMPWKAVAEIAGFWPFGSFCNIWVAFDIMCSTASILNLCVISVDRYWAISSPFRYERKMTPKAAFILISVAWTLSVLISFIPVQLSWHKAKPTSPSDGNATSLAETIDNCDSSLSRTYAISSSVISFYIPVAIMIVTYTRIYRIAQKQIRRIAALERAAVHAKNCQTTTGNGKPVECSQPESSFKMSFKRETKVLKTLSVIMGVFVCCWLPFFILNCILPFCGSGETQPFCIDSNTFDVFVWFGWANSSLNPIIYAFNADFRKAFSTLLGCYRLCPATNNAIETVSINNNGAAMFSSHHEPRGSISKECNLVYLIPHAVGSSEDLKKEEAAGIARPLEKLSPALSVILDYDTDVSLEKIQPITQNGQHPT
Sequence of Acetylcholinesterase (P22303 whole entry): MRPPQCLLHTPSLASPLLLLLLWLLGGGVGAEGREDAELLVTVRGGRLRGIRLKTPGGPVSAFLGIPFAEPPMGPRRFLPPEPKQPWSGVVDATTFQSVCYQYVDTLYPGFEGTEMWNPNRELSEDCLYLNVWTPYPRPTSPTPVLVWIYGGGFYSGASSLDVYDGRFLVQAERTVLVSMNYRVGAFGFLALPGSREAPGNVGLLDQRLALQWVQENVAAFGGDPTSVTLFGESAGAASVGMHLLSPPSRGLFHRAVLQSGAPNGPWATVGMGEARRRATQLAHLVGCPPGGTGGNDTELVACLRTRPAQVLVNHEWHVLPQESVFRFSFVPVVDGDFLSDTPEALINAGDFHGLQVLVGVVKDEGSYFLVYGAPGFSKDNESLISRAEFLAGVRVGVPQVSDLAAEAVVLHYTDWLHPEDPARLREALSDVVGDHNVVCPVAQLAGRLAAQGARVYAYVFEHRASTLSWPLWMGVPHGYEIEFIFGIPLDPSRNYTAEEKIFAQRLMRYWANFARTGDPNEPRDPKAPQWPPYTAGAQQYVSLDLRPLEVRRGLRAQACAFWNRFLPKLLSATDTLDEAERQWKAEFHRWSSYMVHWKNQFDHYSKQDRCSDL

Row | Compound | AC50 [1] | AC50 [2] | AC50 [3] | AC50 [4] | AC50 [5] | AC50 [6] | AC50 [7] | AC50 [8] | AC50 [9] | AC50 [10]
1 | C[C@@H](O)[C@H]1C(=O)N2C(C(=O)O)=C(SCCN=CN)C[C@H]12 [IMIPENEM ANHYDROUS] | > 300 µM | > 300 µM | > 300 µM | – | – | – | – | – | – | –
2 | c1cnc2cc3c(cc2n1)[C@@H]1CNC[C@H]3C1 [VARENICLINE] | > 30 µM | > 30 µM | > 30 µM | – | – | – | – | – | – | –
3 | CN(C)CCC=C1c2ccccc2CCc2ccccc21 [AMITRIPTYLINE] | > 30 µM | – | – | > 10 µM | 0.452 µM | 3.77 µM | > 30 µM | 2.92 µM | – | –
4 | O=C(O)COC(=O)Cc1ccccc1Nc1c(Cl)cccc1Cl [ACECLOFENAC] | – | – | – | – | – | > 10 µM | – | – | – | –
5 | CC(=O)SCC(Cc1ccccc1)C(=O)NCC(=O)OCc1ccccc1 (stereo not drawn) [RACECADOTRIL] | – | – | – | – | > 10 µM | > 10 µM | – | > 10 µM | > 10 µM | –
6 | CO[C@@H]1[C@@H](OC(N)=O)[C@@H](O)[C@H](Oc2ccc3c(O)c(NC(=O)c4ccc(O)c(CC=C(C)C)c4)c(=O)oc3c2C)OC1(C)C [NOVOBIOCIN] | > 30 µM | > 30 µM | > 30 µM | – | – | – | – | – | – | –
7 | CN1CC2c3ccccc3Oc3ccc(Cl)cc3C2C1 (stereo not drawn) [ASENAPINE] | – | > 30 µM | 0.244 µM | – | – | – | – | – | – | –
8 | O=C1[C@@H]2[C@H]3CC[C@H](C3)[C@@H]2C(=O)N1C[C@@H]1CCCC[C@H]1CN1CCN(c2nsc3ccccc23)CC1 [LURASIDONE] | > 30 µM | 1.3 µM | – | – | – | – | – | – | – | 5.7 µM
9 | CC(=O)Oc1ccccc1C(=O)O [ASPIRIN] | > 30 µM | – | – | > 10 µM | > 10 µM | > 10 µM | > 30 µM | > 10 µM | > 10 µM | –
10 | OCCOCCN1CCN(C(c2ccccc2)c2ccc(Cl)cc2)CC1 (stereo not drawn) [HYDROXYZINE] | – | – | – | > 10 µM | > 10 µM | > 10 µM | > 30 µM | 12.8 µM | 0.188 µM | –
11 | C[C@H](CCC(=O)O)[C@H]1CC[C@H]2[C@@H]3[C@H](O)C[C@@H]4C[C@H](O)CC[C@]4(C)[C@H]3CC[C@]12C [CHENODIOL] | – | > 30 µM | > 30 µM | – | – | – | – | – | – | –
12 | CN(C)CCCC1(c2ccc(F)cc2)OCc2cc(C#N)ccc21 (stereo not drawn) [CITALOPRAM] | – | – | – | > 10 µM | – | > 10 µM | > 30 µM | > 10 µM | – | –
13 | CCOC(=O)[C@H](CCc1ccccc1)N[C@@H](C)C(=O)N1Cc2ccccc2C[C@H]1C(=O)O | – | – | – | > 10 µM | > 10 µM | > 10 µM | > 30 µM | > 10 µM | > 10 µM | –
14 | C[C@]12CCC(=O)C=C1CC[C@H]1[C@@H]3CC[C@](O)(C(=O)CO)[C@@]3(C)C[C@H](O)[C@@]12F [FLUDROCORTISONE] | – | – | – | – | > 10 µM | > 10 µM | > 30 µM | > 10 µM | > 10 µM | –
15 | NCC1(CC(=O)O)CCCCC1 [GABAPENTIN] | > 30 µM | > 30 µM | > 30 µM | > 10 µM | > 10 µM | > 10 µM | > 30 µM | > 10 µM | > 10 µM | –
16 | COc1cc2c(cc1OC)C1CC(=O)C(CC(C)C)CN1CC2 (stereo not drawn) [TETRABENAZINE] | – | – | > 30 µM | – | – | – | – | – | – | –
17 | CCN(CC)CCn1c(=O)c(Cc2ccc(OC)cc2)nc2ccccc21 [CAROVERINE] | – | – | – | – | – | – | – | – | – | > 30 µM
18 | C[C@H](Nc1ncnc2[nH]cnc12)c1cc2cccc(Cl)c2c(=O)n1-c1ccccc1 [DUVELISIB] | – | > 30 µM | > 30 µM | – | – | – | – | – | – | > 30 µM
19 | CC(C)(CO)c1cc2cc(NC(=O)C3(c4ccc5c(c4)OC(F)(F)O5)CC3)c(F)cc2n1C[C@@H](O)CO [TEZACAFTOR] | – | – | – | – | – | – | – | – | – | > 30 µM
20 | Nc1c2c(nc3ccccc13)CCCC2O (stereo not drawn) [VELNACRINE] | > 30 µM | – | > 30 µM | – | – | – | – | – | – | –
21 | C[C@H](CS)C(=O)N1CCC[C@H]1C(=O)O [CAPTOPRIL] | – | – | – | – | – | > 10 µM | – | > 10 µM | – | –
22 | Cc1c(C)c2c(c(C)c1O)CCC(C)(COc1ccc(CC3SC(=O)NC3=O)cc1)O2 (stereo not drawn) [TROGLITAZONE] | – | – | – | – | – | – | > 30 µM | – | – | > 30 µM
23 | Cn1cnc2c(F)c(Nc3ccc(Br)cc3F)c(C(=O)NOCCO)cc21 [BINIMETINIB] | > 30 µM | > 30 µM | > 30 µM | – | – | – | – | – | – | > 30 µM
24 | Nc1nnc(-c2cccc(Cl)c2Cl)c(N)n1 [LAMOTRIGINE] | – | – | – | > 10 µM | > 10 µM | > 10 µM | > 30 µM | > 10 µM | > 10 µM | –
25 | CCC[C@@]1(CCc2ccccc2)CC(O)=C([C@H](CC)c2cccc(NS(=O)(=O)c3ccc(C(F)(F)F)cn3)c2)C(=O)O1 | – | > 30 µM | 14 µM | – | – | – | – | – | – | –
